Consider eleven compounds from US20210230213A1, “ARAMCHOL SALTS” (GALMED RESEARCH AND DEVELOPMENT LTD., priority 2013, published 2021).

Series [1] can be described thus: Dynamic Vapour Sorption (DVS). Format: physicochemical. The method, then: The samples was weighed in a glass pan, typically 20-30 mg, and equilibrated at 0% relative humidity (RH). After the material had dried, the RH was increased with 10% per step for 1 hour per increment, ending at […].
The software used for data collection was DVSWin v3.01 No Video. Data analysis was performed using DVS Standard Analysis Suite v6.3.0 (Standard).
After completion of sorption cycle, the material was dried. XRPD was performed before and after DVS.

Series [2] in a line: Fill weight of size 00 HPMC capsule. Format: physicochemical. As to conditions: hard HPMC capsule size 00, filled as is without tapping. From the text: Aramchol (free acid), and the three salts were filled as are, into hard HPMC (Hypromellose; Capsule size 00 (CapsCanada, ON, Canada) without taping, fill weight is presented in table 9.
Series [3] can be described thus: In vivo permeability / PK after intrajejunal administration in cannulated rats (Example 7). Also on record: species or system male Wistar rats. To be noted: rat; for Cmax: 100 mg/kg (based on free acid) in PBS 30 mg/mL, plasma Aramchol (free acid); for Tmax: median. The method, then: An in vivo permeability study of Aramchol salts was performed in male Wistar rats cannulated in the jugular vein and in the jejunum. Intestinal cannulation was performed in order to bypass protonation of Aramchol salts in acidic gastric pH. Aramchol salts solubilized in PBS (30 mg/mL) were administered to rats intestine (jejunum) in a dose of 100 mg/kg (based on free acid), via a cannula inserted into the proximal side of the jejunum. A suspension of Aramchol free acid (in PBS, 30 mg/mL) was administered via the same route and was used as control. Blood samples were withdrawn via a cannula inserted into jugular vein at pre-determined time points (pre-dose, 1 hr, 2 hr, 4 hr, 8 hr, 12 hr, 24 hr post dose). Plasma concentrations of Aramchol (free acid) were measured using a liquid chromatography-tandem mass spectrometry (LC-MS-MS) method by Analyst Bioanalytical Laboratories, Israel. All PK parameters were calculated using non-compartmental analysis. Only those plasma concentrations equal to or greater than the lower limit of quantitation (LOQ) (48.66 ng/mL) were used in the analysis. Plasma concentrations <LOQ that occurred from pre-dose to the first concentration ≥LOQ were treated as 0. Actual sampling times were used for all pharmacokinetic analyses. The following PK parameters were calculated: maximum plasma concentration (Cmax), time to Cmax (Tmax), area under the plasma concentration-time curve from time of administration until the last plasma concentration (AUC0-4), AUC/dose, elimination half-life (t½). Cmax and Tmax were taken directly from the data. Area under the curve from zero to the final sample with a concentration ≥LOQ. AUC0-4 was calculated using the linear trapezoidal method.

A short description of series [4]: physchem. As to conditions: 50 °C, organic solvent or mixture.
The nature of series [5]: Aqueous solubility at 20° C., shake-flask, stepwise water addition (Example 2). Format: physicochemical. As to conditions: for solubility: water, 20 °C, thermodynamic from solid, 20° C. The method, then:
The Aramchol salts of the present invention were further assessed for their solubility in water. […] 5 mg of each salt was weighed. Water was added stepwise until a clear solution was obtained (Table 2, solubility in water). The pH of each solution was measured (Table 2, pH after solubility).

Series [6] is described as follows: Saturated solubility in buffer solutions and bio-relevant media at 37° C. (Example 6). In kind it is physicochemical. To be noted: 37° C.
Setting [7] is: RH raised from 0% in 10% steps to 95% RH, stepwise, reversible.
Where [8] appears, read: water, Aramchol free acid and base 1:1, 50° C.
The mark [9] stands for this setting: 100 mg/kg, mean ± standard error.

Where a name gives a salt, the structure may show the parent alone. Read-outs that look alike come from different tables or passages of the source.

As for 2-diethylamino-ethanol, the “salt remains in solution after cooling to 20° C.” value (shortened to “salt remains in solution”) is on record as “yes”. Moreover, in series [1], the “Mass uptake (DVS)” value is 12.1% (stepwise; reversible). Further, the “Dissolved (50 in g in 1) at 50° C.” value (50° C.) is “Yes”.
Consider “3β-arachidylamido-7α,12α-dihydroxy-5β-cholan-24-oic acid lysine salt [L-Lysine]”, for which, in series [2], the “fill weight of one 00 size capsule” value is reported as 0.33 gram. Besides, the “Mass uptake (DVS)” value in series [1] (setting [7]) was 23.1% (stepwise, reversible). The “Dissolved (50 in g in 1) at 50° C.” value under setting [8] is “No”. Also, the Cmax in series [3] (mean ± standard error) was 7294.2 ± 5463.0 (5) ng/mL. Besides, in series [3] (setting [9]), the “AUC(0-t)” value is listed as 26460.3 ± 9415.5 (5) hr × ng/mL, the AUC/dose is reported as 270.0 ± 99.0 (5) hr × ng × kg/mL × mg and the t1/2 is given as 5.2 ± 1.0 (5) hr. Also, the Tmax in series [3] (100 mg/kg) is 2.0 (5) [2-4] hr.
On to `CCCCCCCCCCCCCCCCCCCC(=O)NC1CCC2(C)C(C1)CC(O)C1C2CC(O)C2(C)C(C(C)CCC(=O)O)CCC12.N` (stereo not drawn) [Ammonia], for which the “Dissolved (50 in g in 1) at 50° C.” value is “No” and the “salt remains in solution” value is “no”. Also, the “Mass uptake (DVS)” value in series [1] is given as 5.4% (stepwise; reversible).
On to `c1ccc(CNCCNCc2ccccc2)cc1` [Benzathine], for which the “Dissolved (50 in g in 1) at 50° C.” value under setting [8] is “No”.
`CN(C)CCO` [Deanol]: the “Mass uptake (DVS)” value in series [1] (setting [7]) was 17.3% (stepwise; reversible). Besides, under setting [8], the “Dissolved (50 in g in 1) at 50° C.” value was “Yes”. In addition, the “salt remains in solution” value (water, cooled to 20° C.) is reported as “yes”.
The like results for `CCNCC` [Diethylamine] were, in that order, 14.8% (stepwise; reversible), “Yes” and “no”.
For the compound `NCCO` [Ethanolamine], the “Mass uptake (DVS)” value in series [1] (setting [7]) was 13.2% (stepwise; reversible).
For orientation: solubility means the dissolved amount per volume that the medium holds. Turning to `CCCCCCCCCCCCCCCCCCCC(=O)N[C@H]1CC[C@@]2(C)[C@@H](C1)C[C@@H](O)[C@@H]1[C@@H]2C[C@H](O)[C@]2(C)[C@@H]([C@H](C)CCC(=O)O)CC[C@@H]12` [Tromethamine, 3β-arachidylamido-7α,12α-dihydroxy-5β-cholan-24-oic acid tromethamine salt], the solubility at 2 h in series [4] is above 50 mg/mL. The pH of solution in series [5] (after solubility test in water, XRPD: Crystalline) came out at 8. The solubility in series [5] (XRPD: Crystalline) was 32 to 95 mg/mL; in series [5] (XRPD: Poorly crystalline), below 11 mg/mL; in series [6] (Demi-Water (pH 7.8), 24 h), “Gel”; in series [6] (Demi-Water (pH 7.8), 24 h, listed as tromethamine salt), “turned into gets”; in series [6] (FaSSIF (pH 6.5), 30 min), “Gel”; in series [6] (FaSSIF (pH 6.5), 24 h), “Gel”. Moreover, the solubility result in series [6] (FeSSIF (pH 5.0), 30 min) was “Gel”; in series [6] (FeSSIF (pH 5.0), 24 h), “Gel”; in series [6] (PBS pH 7.4, 24 h), “Gel”; in series [6] (Phosphate buffer pH 6.5, 30 min), “Gel”; in series [6] (Phosphate buffer pH 6.5, 24 h) it was “Gel”; in series [6] (Phosphate buffer pH 7.0, 24 h), “Gel”. Moreover, in series [2], the “fill weight of one 00 size capsule” value worked out at 0.31 gram. Also, the “Mass uptake (DVS)” value in series [1] (setting [7]) was 9.4% (stepwise; reversible). The “Dissolved (50 in g in 1) at 50° C.” value under setting [8] is given as “No”. In series [3] (male, Wistar, plasma, 100 mg/kg, mean ± standard error), this compound had a Half-life of 6.5 ± 2.4 h. Further, the AUC(0-t) in series [3] (male, Wistar, plasma, 100 mg/kg, mean ± standard error, read-out: AUC 0-t) is 18600 ± 2280 ng·h/mL. The Tmax in series [3] (male, Wistar, plasma, 100 mg/kg, read-out: Tmax) amounted to 2 h. Also, in series [3] (male, Wistar, mean ± standard error, read-out: Cmax), the Cmax turned out to be 2250 ± 208 ng/mL. Further, the AUC/dose in series [3] (setting [9]) is 184.7 ± 22.7 (4) hr × ng × kg/mL × mg. The solubility at 30 min in series [6] (aqueous buffer, thermodynamic from solid, PBS pH 7.4, 30 min) was 23 mg/mL; in series [6] (aqueous buffer, thermodynamic from solid, Phosphate buffer pH 7.0, 30 min), 29.4 mg/mL; in series [6] (saline or isotonic, thermodynamic from solid, Saline pH 5.5, 30 min) it was 0.03 mg/mL; in series [6] (simulated gastric fluid, thermodynamic from solid, HCl buffer pH 1.2, 30 min), 0.02 mg/mL; in series [6] (thermodynamic from solid, Demi-Water (pH 7.8), 30 min), 45 mg/mL. In series [6] (simulated gastric fluid, thermodynamic from solid, HCl buffer pH 1.2, 24 h), this compound had a solubility at 24 h of 0.29 mg/mL.
Regarding Choline, the “Dissolved (50 in g in 1) at 50° C.” value is “Yes” and the “salt remains in solution” value is given as “yes”.
Diethanolamine: the “Mass uptake (DVS)” value in series [1] (setting [7]) is 6.9% (stepwise; reversible). Besides, the “Dissolved (50 in g in 1) at 50° C.” value under setting [8] was “Yes”. Also, the “salt remains in solution” value (water, cooled to 20° C.) is given as “yes”.
In the case of L-Arginine, the “Dissolved (50 in g in 1) at 50° C.” value under setting [8] is reported as “Yes”. Further, the “salt remains in solution” value (water, cooled to 20° C.) is reported as “no”.
